Experimental findings from patent US7514582B2, “2′-substituted 1,1′-biphenyl-2-carboxamides, processes for their preparation, their use as medicaments, and pharmaceutical preparations comprising them” (Sanofi-Aventis Deutschland GmbH, priority 1999, dated 2009) are described below.

In the first data set the target is T1, Kv1.5 channels from humans (Homo sapiens, UniProt P22460).
T1 construct: expressed in transfected cells; host or cells: Xenopus laevis oocytes injected with in vitro synthesized RNA
T1 sequence (P22460 whole entry): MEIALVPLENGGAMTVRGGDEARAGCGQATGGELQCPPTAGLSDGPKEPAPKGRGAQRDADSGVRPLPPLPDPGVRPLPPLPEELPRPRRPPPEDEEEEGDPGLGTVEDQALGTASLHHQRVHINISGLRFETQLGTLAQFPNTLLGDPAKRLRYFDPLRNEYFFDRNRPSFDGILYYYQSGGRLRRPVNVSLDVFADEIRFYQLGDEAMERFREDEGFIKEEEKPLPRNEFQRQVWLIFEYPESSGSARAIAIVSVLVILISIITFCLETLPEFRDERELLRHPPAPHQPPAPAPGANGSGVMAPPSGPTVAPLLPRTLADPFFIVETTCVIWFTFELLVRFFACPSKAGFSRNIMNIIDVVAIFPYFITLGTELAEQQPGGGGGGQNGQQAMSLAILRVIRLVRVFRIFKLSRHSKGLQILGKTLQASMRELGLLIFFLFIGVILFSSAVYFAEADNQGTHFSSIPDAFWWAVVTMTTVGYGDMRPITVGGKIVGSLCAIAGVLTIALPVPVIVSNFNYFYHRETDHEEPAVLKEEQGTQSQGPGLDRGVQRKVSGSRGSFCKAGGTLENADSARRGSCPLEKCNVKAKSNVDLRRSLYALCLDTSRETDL
Description: Kv1.5 currents in Xenopus oocytes, two-microelectrode voltage clamp. In kind it is cell-based.
Conditions: not given
The procedure: Kv1.5 channels from humans were expressed in Xenopus oocytes. For this, oocytes from Xenopus laevis were first isolated and defolliculated. RNA encoding Kv1.5 synthesized in vitro was then injected into these oocytes. After Kv1.5 protein expression for 1-7days, Kv1.5 currents were measured on the oocytes using the two-microelectrode voltage clamp technique. The Kv1.5 channels were in this case as a rule activated using voltage jumps to 0 mV and 40 mV lasting 500 ms. The bath was rinsed with a solution of the following composition: NaCl 96 mM, KCl 2 mM, CaCl2 1.8 mM, MgCl2 1 mM, HEPES 5 mM (titrated with NaOH to pH 7.4). These experiments were carried out at room temperature. The following were employed for data acquisition and analysis: Genedamp amplifier (Axon Instruments, Foster City, USA) and MacLab D/A converter and software (AD Instruments, Castle Hill, Australia). The substances according to the invention were tested by adding them in different concentrations to the bath solution. The effects of the substances were calculated as the percentage inhibition of the Kv1.5 control current which was obtained when no substance was added to the solution. The data were then extrapolated using the Hill equation in order to determine the inhibitory concentration IC50 for the respective substances.
The compound `O=C(NCCc1ccccn1)c1ccccc1-c1ccccc1CNS(=O)(=O)c1cccc(F)c1` [3 r] gave an IC50 of 1500 nM. Regarding `CC(OC(=O)NCc1ccccc1-c1ccccc1C(=O)NCCc1ccccn1)c1ccc(C(F)(F)F)cc1` (racemic) [1 f], the IC50 stood at 400 nM.

For the compound `CC(C)C[C@H](NC(=O)c1ccccc1-c1ccccc1CNC(=O)CCc1ccccc1)C(=O)NCC(F)(F)F` [13 g], the midpoint of inhibition, the IC50, lay at 1100 nM. Consider `O=C(NCc1ccccc1)NCc1ccccc1-c1ccccc1C(=O)NCCc1ccccn1` [5 c], for which the half-inhibitory concentration (IC50) was 7800 nM. Same read-out and setting: the figure for `O=C(NCCc1ccccn1)c1ccccc1-c1ccccc1CNC(=S)NCc1ccccc1` [9 f] is 2200 nM. The compound `COc1ccc(CCC(=O)NCc2ccccc2-c2ccccc2C(=O)NCc2ccc(F)cc2F)cc1` [14 e] returned an IC50 of 800 nM.

Take `O=C(NCc1ccccc1-c1ccccc1C(=O)NCCc1ccccn1)Nc1ccc(C(F)(F)F)cc1` [11 m]: the IC50 is 3300 nM. As for `CC(OC(=O)NCc1ccccc1-c1ccccc1C(=O)NCCc1ccccn1)c1ccccc1C(F)(F)F` (stereo not drawn) [1 l], the IC50 was 1400 nM. `C[C@H](CC(=O)NCc1ccccc1-c1ccccc1C(=O)NCCc1cccnc1)c1ccccc1` [18 i] had an IC50 of 400 nM. `CC(C)CCC(=O)NCc1ccccc1-c1ccccc1C(=O)NCc1ccc(F)cc1F` [18 e] had an IC50 of 1700 nM.

Consider `CC(C)(C)OC(=O)NCc1ccccc1-c1ccccc1C(=O)NCc1ccccn1` [8 d], for which it took 6400 nM to reach half-maximal inhibition (IC50). Turning to `Cc1ccccc1CCC(=O)NCc1ccccc1-c1ccccc1C(=O)NCc1ccc(F)cc1F` [14 a], the IC50 was 3600 nM. The compound `CC(CC(=O)NCc1ccccc1-c1ccccc1C(=O)NCCc1ccccn1)c1ccccc1` (stereo not drawn) [4 l] registered an IC50 of 800 nM.

Consider `COC(=O)C(Cc1ccccn1)NC(=O)c1ccccc1-c1ccccc1CNC(=O)OC(C)(C)C` (stereo not drawn) [8 n], for which the IC50 turned out to be 3700 nM.

`O=C(NCc1ccccc1-c1ccccc1C(=O)Nc1ccccc1)OCc1ccccc1` [6 c] displayed an IC50 of 2500 nM. `O=C(NCCc1ccccn1)c1ccccc1-c1ccccc1CNS(=O)(=O)c1ccccc1` [3 p] gave an IC50 of 1900 nM. Still for that read-out and setting: the figure for `CCCCOC(=O)NCc1ccccc1-c1ccccc1C(=O)NCCC(C)C` [2 d] is 1700 nM. Compound `O=C(NCc1ccccc1-c1ccccc1C(=O)NCc1ccc(F)cc1F)Oc1ccccc1` [2 k] showed an IC50 of 3800 nM. `CC[C@@H](C)OC(=O)NCc1ccccc1-c1ccccc1C(=O)NCc1cccc(C)n1` [18 ac] came in with an IC50 of 10000 nM. Take `COc1ccc(NC(=O)c2ccccc2-c2ccccc2CNC(=O)CCc2ccccc2)cc1` [4 h]: the IC50 worked out at 1800 nM. Same read-out and setting: to `O=C(NCc1ccccc1-c1ccccc1C(=O)NCCc1ccncc1)OCc1ccccc1` [8 ab] belongs 1200 nM; to `COc1ccc(CC(=O)NCc2cccc(C)c2-c2c(C)cccc2C(=O)NCCC(C)C)cc1` [18 x], 4600 nM; to `CCCCN(CCCC)C(=O)c1ccccc1-c1ccccc1CNC(=O)OCc1ccccc1` [6 e], 3600 nM. Compound `O=C(NCc1ccccc1-c1ccccc1C(=O)NCC(F)(F)F)OCc1ccccc1` [6 h] returned an IC50 of 3000 nM.

`CC(C)(C)COC(=O)NCc1ccccc1-c1ccccc1C(=O)NCCc1ccccc1` [2 i] yielded an IC50 of 3300 nM. Regarding `COc1ccc(CC(=O)NCc2ccccc2-c2ccccc2C(=O)NCCc2ccccn2)cc1` [4 d], the IC50 worked out at 1800 nM. Same read-out and setting: the figure for `O=C(NCc1ccccc1-c1ccccc1C(=O)NCc1ccccn1)OCc1ccccc1` [1 u] is 800 nM.

For the compound `O=C(NCc1ccccc1-c1ccccc1C(=O)NCc1ccc(F)cc1F)OCc1ccc(F)cc1` [1 s], the IC50 is 1700 nM. As for `C[C@@H](OC(=O)NCc1ccccc1-c1ccccc1C(=O)NCCc1ccccn1)c1ccc(C(F)(F)F)cc1` [1 h], half-maximal inhibition (IC50) was put at 4300 nM.

As for `O=C(NCc1ccccc1-c1ccccc1C(=O)NCCCC(F)(F)F)OCc1ccccc1` [8 s], the IC50 is 1000 nM.

Regarding `O=C(NCc1ccccc1-c1ccccc1C(=O)NCc1nc2ccccc2[nH]1)OCc1ccccc1` [18 ah], the IC50 came out at 2100 nM. On the same count and under the same terms, the figure for `O=C(NCc1ccccc1-c1ccccc1C(=O)NCCc1cccc[n+]1[O-])OCc1ccccc1` [7 a] is about 6000 nM. Regarding `C[C@@H](OC(=O)NCc1ccccc1-c1ccccc1C(=O)NCc1ccc(F)cc1F)c1ccccc1` [1 o], it took 4400 nM to reach half-maximal inhibition (IC50). The same measure, in the same setting: to `CC(C)CCNC(=O)c1ccccc1-c1ccccc1CNC(=O)OCC1CC1` [18 o] belongs 3600 nM.

Compound `Cc1cccc(S(=O)(=O)NCc2ccccc2-c2ccccc2C(=O)N[C@@H](Cc2ccccc2)C(N)=O)c1` [12 f] yielded an IC50 of 11300 nM. In turn, `CC(C)CCNC(=O)[C@H](CC(C)C)NC(=O)c1ccccc1-c1ccccc1CNC(=O)OCc1ccccc1` [13 e] yielded an IC50 of 2800 nM. Regarding `CCC(C)CC(=O)NCc1ccccc1-c1ccccc1C(=O)NCc1ccccn1` (stereo not drawn) [18 g], the IC50 is 3900 nM.

Compound `CC(C)NC(=O)C(Cc1ccccn1)NC(=O)c1ccccc1-c1ccccc1CNC(=O)OCc1ccccc1` (stereo not drawn) [13 i] showed an IC50 of 1200 nM. Regarding `COc1ccc(CC(=O)NCc2ccccc2-c2ccccc2C(=O)NCc2nc3ccccc3[nH]2)cc1` [18 af], the IC50 is 5800 nM.

`COc1ccc(CC(=O)NCc2ccccc2-c2ccccc2C(=O)NC(C)CC(C)C)cc1` (stereo not drawn) [18 ab] displayed an IC50 of 1100 nM. Regarding `COc1ccc(S(=O)(=O)NCc2ccccc2-c2ccccc2C(=O)N[C@@H](CC(C)C)C(=O)NCC(F)(F)F)cc1` [13 h], the IC50 was determined as 1400 nM. For `C[C@H](OC(=O)NCc1ccccc1-c1ccccc1C(=O)NCCc1cccnc1)c1ccccc1` [18 s], the half-maximal inhibitory concentration (IC50) is 900 nM.

On to `O=C(NCc1ccccc1-c1ccccc1C(=O)NCCc1ccccn1)Nc1cccc(C(F)(F)F)c1` [11 o], for which the IC50 came to 4400 nM. For `CC(OC(=O)NCc1ccccc1-c1ccccc1C(=O)NCCc1ccccn1)c1cccc(C(F)(F)F)c1` (stereo not drawn) [1 m], the concentration for half-maximal inhibition (IC50) was determined as 700 nM. In turn, `O=C(NCc1ccccc1-c1ccccc1C(=O)NCCc1ccccc1)OCc1ccccc1` [1 b] showed an IC50 of 3300 nM. With `C[C@H](CC(=O)NCc1ccccc1-c1ccccc1C(=O)NCC1CC1)c1ccccc1` [18 b], the IC50 came to 400 nM.

`O=C(NCc1ccccc1)c1ccccc1-c1ccccc1CNS(=O)(=O)c1cccc(F)c1` [3 k] showed an IC50 of 2400 nM. The same measure, in the same setting: the figure for `COc1ccc(CC(=O)NCc2ccccc2-c2ccccc2C(=O)Nc2ccc(OC)cc2)cc1` [4 g] is 3400 nM; for `COc1ccc(CC(=O)NCc2ccccc2-c2ccccc2C(=O)NCCCOC(C)C)cc1` [18 y] it is 1900 nM.

`CC(C)CCNC(=O)c1ccccc1-c1ccccc1CNC(=O)COc1ccccc1` [18 c] returned an IC50 of 4200 nM. In turn, `CC(C)C[C@@H](NC(=O)c1ccccc1-c1ccccc1CNC(=O)OCc1ccccc1)C(N)=O` [8 ac] came in with an IC50 of 1100 nM. In turn, `CN(C)c1ccc(CNC(=O)c2ccccc2-c2ccccc2CNC(=O)OCc2ccccc2)cc1` [18 ai] showed an IC50 of 6600 nM. For the compound `CC(C)NC(=O)CNC(=O)c1ccccc1-c1ccccc1CNC(=O)OCc1ccccc1` [8 y], the IC50 was determined as 2800 nM. `O=C(NCc1ccccc1-c1ccccc1C(=O)NCCc1ccccn1)Nc1ccc(F)cc1F` [11 b] showed an IC50 of 7300 nM. `O=C(NCc1ccccc1-c1ccccc1C(=O)NCCc1ccccn1)OCCCC(F)(F)F` [1 i] yielded an IC50 of 1700 nM.

Regarding `C[C@H](O)CNC(=O)c1ccccc1-c1ccccc1CNC(=O)O[C@@H](C)c1ccccc1` [18 n], the IC50 was 400 nM. Compound `COC(=O)[C@H](Cc1ccccc1)NC(=O)c1ccccc1-c1ccccc1CNC(=O)OCc1ccccc1` [8 b] had an IC50 of 900 nM.

The data set is the same for the next values; noted with them: human Kv1.5 expressed in Xenopus laevis oocytes; voltage jumps to 0 mV and 40 mV, 500 ms; room temperature; inhibition of Kv1.5 control current, Hill equation.
With `O=C(NCc1ccccc1-c1ccccc1C(=O)NCc1ccccn1)Nc1ccc(C(F)(F)F)cc1` [11 d], the IC50 came out at 3300 nM. Regarding `COc1ccc(NC(=O)NCc2ccccc2-c2ccccc2C(=O)NCCc2ccccn2)cc1` [11 a], the IC50 was 2300 nM.

In turn, `O=C(NCc1ccccn1)c1ccccc1-c1ccccc1CNC(=S)NCCc1ccccc1` [9 g] showed an IC50 of 2200 nM. The same measure, in the same setting: the figure for `COc1cc(CNC(=O)c2ccccc2-c2ccccc2CNC(=O)Nc2ccc(F)cc2F)cc(OC)c1OC` [11 h] is 5800 nM.

The compound `O=C(NCc1ccccc1-c1ccccc1C(=O)NCCc1ccccn1)Nc1ccc(Cl)cc1` [11 l] came in with an IC50 of 2700 nM.

System in the next data set: not given
Experiment: not given
Conditions: not given
`O=C(NCc1ccccc1)c1ccccc1-c1ccccc1CNS(=O)(=O)c1cccc(F)c1` [Example 3 k, 2′-(3-Fluorophenylsulfonylaminomethyl)biphenyl-2-carboxylic acid benzylamide] had a melting point of 147 °C. In turn, `O=C(NCc1ccccc1)c1ccccc1-c1ccccc1CNS(=O)(=O)c1ccccc1` [Example 3 j, 2′-(3-Phenylsulfonylaminomethyl)biphenyl-2-carboxylic acid benzylamide] showed a melting point of 162 °C.

For `O=C(NCCc1ccccn1)c1ccccc1-c1ccccc1CNS(=O)(=O)c1cccc(F)c1` [Example 3 r, 2′-(3-Fluorophenylsulfonylaminomethyl)biphenyl-2-carboxylic acid 2-(2-pyridyl)ethylamide], the melting point is 123 °C. Same read-out and setting: the figure for `O=C(NCCc1ccccc1)c1ccccc1-c1ccccc1CNS(=O)(=O)c1ccccc1` [Example 3 d, 2′-(Phenylsulfonylaminomethyl)biphenyl-2-carboxylic acid phenethylamide] is 154 °C.
